Laboratory results reported in EP3516395B1, “METHOD FOR DETERMINING AFFINITY BETWEEN LIGANDS AND A TARGET” (Plant Advanced Technologies Pat, priority 2016, dated 2018).

Key:
trypsine [1] = conditions: 2660 µM; International Journal of Food Science & Technology 2014, 49, 1063-1069; cited from earlier work
hyaluronidase = conditions: 200 µM; Asian J. Chem. 2013, 25, 10262-10266; cited from earlier work
trypsine [2] = assay: Affinity by binding, ultrafiltration and UPLC-MS, control target (Example 5); conditions: chromatogram C, figure 3
Method: (§1) Une solution de travail de hyaluronidase de testicules bovins à 5 mg/mL est préparée en dissolvant de la poudre de l'enzyme lyophilisée dans un tampon phosphate salin à 50 mM, avec un pH de 7,0. Une solution de travail de trypsine (la cible témoin) est préparée de la même manière que celle de hyaluronidase. L'échantillon est préparé en utilisant l'un des solvants suivants : des glycols, DMSO (diméthylsulfoxide), l'éthanol pur ou en solution dans l'eau. La concentration dans l'échantillon de ligand initial doit être dans la gamme de 0,75 à 1 mM. Le ligand choisi (quercétine) est un inhibiteur connu de l'hyaluronidase (Asian J. Chem. 2013, 25, 10262-10266). Un échantillon de référence est préparé également en diluant l'échantillon de 10 à 20 fois dans une solution de trois quarts de volume d'acétonitrile et d'un quart de volume d'eau. […]

[3] = tested on: hyaluronidase de testicules bovins; assay: Affinity by binding, ultrafiltration and UPLC-MS (Example 5); conditions: chromatogram B, figure 3
Method: as §1

tyrosinase de champignon = assay: Relative affinity by competitive binding, ultrafiltration and UPLC-MS/UV (Example 1); conditions: equimolar ligands
Method: Une solution de travail de tyrosinase de champignon à 1.25 mg/mL est préparée en dissolvant de la poudre de l'enzyme lyophilisée dans 50 mM d'acétate d'ammonium, avec un pH de 7.0. L'échantillon est préparé en utilisant l'un des solvants suivants : des glycols, DMSO (diméthylsulfoxide), l'éthanol, pur ou en solution dans l'eau. La concentration dans l'échantillon des ligands initiaux est équimolaire et doit être dans la gamme de 0,75 à 1 mM. Les ligands choisis étaient des inhibiteurs connus de la tyrosinase isolés depuis des racines de murier noir (Morus nigra) : la moracénine A, moracénine B et la kuwanone C. Un échantillon de référence est préparé également en diluant l'échantillon de 10 à 20 fois dans une solution d'eau et d'un quart de volume d'acétonitrile.
• 1. Étape de préconditionnement - Des puits à membrane filtrante sont pré-conditionnées avec un volume de 500 µl d'une solution à 85% d'acétate d'ammonium et 15% d'éthanol qui est passé à travers la membrane avec une centrifugation de 14000 g pendant 60 secondes. • 2. Étape de liaison - La préparation de tyrosinase (1.25 mg/mL, 75 µL) est mélangée avec 5 µl de l'échantillon dans un tube d'Eppendorf en plastique, puis est incubée pendant 5 min. Dans ce mélange, on a 9,16 µM de tyrosinase et une gamme de 46,88 µM à 62,5 µM de ligands (moracénine A, moracénine B et kuwanone C) soit un ratio ligands/cible allant de 5,12 à 6,83. • 3. Étape de lavage - le mélange de l'enzyme et de l'échantillon est déposé dans un puits préconditionné à l'étape de préconditionnement, puis centrifugé à 14000 g jusqu'à l'élimination de l'essentiel du solvant. Les complexes enzyme-ligands restent à la surface de la membrane du filtre puis sont à nouveau suspendu dans un volume de 100 µL de la même solution à 85% d'acétate d'ammonium et 15% d'éthanol et centrifugé à 14000 g jusqu'à élimination du solvant. Cette procédure est répétée trois fois et élimine tous les composés qui ne sont pas liés à l'enzyme. • 4. Étape de séparation - Les complexes enzyme-ligands retenus dans le filtre sont à nouveau suspendus dans un volume de 10 µL d'eau ultra-pure, puis sont mélangés avec un volume de 40 µL d'acétonitrile pour dénaturer et précipiter l'enzyme et, en même temps libérer les ligands. Le mélange est centrifugé à 21000 g pendant 10 min pour séparer le précipité du surnageant. • 5. Étape d'analyse - Ledit surnageant formant la solution traitée est analysé par chromatographie en phase liquide couplée à une spectrométrie de masse, connue également par l'acronyme UPLC-MS. L'échantillon de référence est analysé également de la même manière, en utilisant les mêmes conditions d'analyse. Les affinités relatives sont calculées selon la méthode décrite ci-après. De préférence, l'échantillon de référence et la solution traitée sont analysés séquentiellement pour éliminer des dispersions dues aux réglages de l'appareillage.
Une analyse par chromatographie en phase liquide fournit un chromatogramme tel que montré par les figures 1 et 2. Le chromatogramme représente une intensité de signal en fonction du temps de rétention dans une colonne. Le signal présente différents pics d'intensité variable. Chaque pic est associé à l'un des ligands présent dans l'échantillon et la solution traitée. • 1. Normalisation de l'intensité du signal analytique pour les ligands dans l'échantillon de référence. Pour chaque chaque ligand CEi dans l'échantillon de référence, on établit des facteurs de normalisation NFeq dudit ligand CEi par comparaison au ligand de référence REF, selon l'équation suivante : NFeq,CEi = (ISeq,CEi)/(ISeq,REF) [formula] où : • NF est un facteur de normalisation; • ISeq,CEi est l'intensité du signal analytique pour le ligand CEi dans l'échantillon; • ISeq,REF est l'intensité du signal analytique pour le ligand de référence REF dans l'échantillon. L'intensité peut être choisie parmi l'aire du pic ou la valeur maximale du pic. Le facteur de normalisation du ligand de référence vaut toujours 1. • 2. […]

tyrosinase = conditions: literature values, 50% reduction of enzyme activity; cited from earlier work

affinité (trypsine [2]) | affinité [3] | Facteur de normalisation, solution traitée (tyrosinase de champignon; NFTB, peak area UV 270 nm relative to reference ligand moracénine B) | Affinités relatives (tyrosinase de champignon; RA = NFTB/NFeq, reference ligand moracénine B) | Compound | inhibition de la trypsine (trypsine [1]) [%] | inhibition de l'hyaluronidase (hyaluronidase) [%] | IC50 (tyrosinase) [µM]
très faible affinité | affinité importante | – | – | O=c1c(O)c(-c2ccc(O)c(O)c2)oc2cc(O)cc(O)c12 [quercétine] | 46 | 54 | –
– | – | 1,29 | 1,50 | moracénine A | – | – | 10.3
